{"source": "paper PMC12497738", "about": "“Linear and conformational epitopes of vicilin-buried peptides as a model for improved nut allergy diagnostics” (Frontiers in Allergy, 2025)", "origin": "cited, not measured here", "test_system": "6D12 monoclonal antibody", "details": "N-terminal helix, amino acids 21–36 of folded JR2.1; unpublished communications by Dr. Geoffrey Mueller (NIEHS); ref [16]", "source_text": "The mature vicilin domains in Figure 1A are labeled Jug r 2 and Ara h 1. A human monoclonal IgE antibody (6D12) was used to assess IgE binding to conformational epitopes in JR2LS and its three constituent VBPs using ciELISA (Figures 1B,C). […] With this method, a known immunodominant epitope of Ara h 2 was used to identify a cross-reactive, linear epitope in the JR2LS ([16]). The IgE binding regions identified in this study overlap or are near the previously described epitope containing areas, emphasizing the relevance of JR2LS VBPs as clinically relevant IgE targets ([16], [17]). Here, ELISA, linear peptide microarray, and computational analysis were used to ...", "note": "Entries after “also recorded” stand apart in the source; their conditions may differ.", "data": [{"sequence": "CQEYCRRQGQGQRQQ [peptide 5, …, N-terminal helix, amino acids 21–36 of the folded JR2.1]", "values": [{"measurement": "Binding of 6D12 to peptide 5, in words", "result": "specific binding; also recorded: the primary target of 6D12"}]}]}
